In ChEMBL document CHEMBL6074716, “Discovery of SET domain-binding primary alkylamine-tethered degraders for the simultaneous degradation of NSD2-long and RE-IIBP isoforms” (Eur J Med Chem, 2025):
Converted amounts (≈) assume the structure as drawn. Each block holds one compound with its values, some of them ahead of it. The source made the active and inactive calls. The calls are words filed in the database; no cut-off is given here.

Assays:
KMS-11 [1] = assay: Induction of primary alkylamine-tethering degradation of NSD2 in human KMS-11 cells at 1 to 4 uM by Western blot analysis; assay type: cell-based; conditions: dose 1-4 µM
[2] = target: T1, Histone-lysine N-methyltransferase NSD2 (Homo sapiens, UniProt O96028); assay: Binding affinity to CM5 chip-immobilizes NSD2 (unknown origin) assessed as dissociation constant by SPR analysis
T1 sequence (O96028 whole entry): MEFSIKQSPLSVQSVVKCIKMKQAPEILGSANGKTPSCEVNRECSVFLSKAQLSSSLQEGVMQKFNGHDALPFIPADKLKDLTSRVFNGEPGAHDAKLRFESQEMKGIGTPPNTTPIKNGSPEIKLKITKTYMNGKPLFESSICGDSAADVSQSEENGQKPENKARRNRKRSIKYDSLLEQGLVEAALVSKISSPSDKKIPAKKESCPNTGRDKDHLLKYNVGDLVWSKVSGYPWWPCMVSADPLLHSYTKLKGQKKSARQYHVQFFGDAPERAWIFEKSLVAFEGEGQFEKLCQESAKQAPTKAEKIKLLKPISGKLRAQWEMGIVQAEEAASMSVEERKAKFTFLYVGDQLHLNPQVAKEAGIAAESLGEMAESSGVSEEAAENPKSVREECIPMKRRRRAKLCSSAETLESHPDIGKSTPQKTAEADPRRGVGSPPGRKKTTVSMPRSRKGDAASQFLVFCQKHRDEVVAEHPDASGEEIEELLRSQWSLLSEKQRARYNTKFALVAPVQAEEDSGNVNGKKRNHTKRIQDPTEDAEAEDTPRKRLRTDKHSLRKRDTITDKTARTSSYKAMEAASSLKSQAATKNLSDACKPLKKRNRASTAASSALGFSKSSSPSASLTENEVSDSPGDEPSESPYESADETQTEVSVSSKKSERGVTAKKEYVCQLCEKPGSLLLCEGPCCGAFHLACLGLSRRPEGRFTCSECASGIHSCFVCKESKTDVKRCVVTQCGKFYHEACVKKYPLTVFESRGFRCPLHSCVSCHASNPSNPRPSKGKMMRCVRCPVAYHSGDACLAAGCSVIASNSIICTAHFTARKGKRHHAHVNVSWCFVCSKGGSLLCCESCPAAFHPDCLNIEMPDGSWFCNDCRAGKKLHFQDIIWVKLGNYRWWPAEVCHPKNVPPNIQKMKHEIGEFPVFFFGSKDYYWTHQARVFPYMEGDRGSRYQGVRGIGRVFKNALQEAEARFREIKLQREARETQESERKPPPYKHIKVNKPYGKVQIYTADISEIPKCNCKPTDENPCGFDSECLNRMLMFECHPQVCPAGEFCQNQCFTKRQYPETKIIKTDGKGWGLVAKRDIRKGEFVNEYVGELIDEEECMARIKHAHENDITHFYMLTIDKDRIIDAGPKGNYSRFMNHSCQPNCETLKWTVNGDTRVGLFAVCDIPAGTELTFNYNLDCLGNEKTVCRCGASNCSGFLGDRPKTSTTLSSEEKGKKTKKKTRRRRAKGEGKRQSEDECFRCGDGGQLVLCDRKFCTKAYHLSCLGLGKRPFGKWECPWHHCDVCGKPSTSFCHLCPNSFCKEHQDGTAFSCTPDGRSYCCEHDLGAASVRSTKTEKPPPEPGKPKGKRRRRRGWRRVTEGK

KMS-11 [3] = assay: Induction of primary alkylamine-tethering degradation of NSD2 in human KMS-11 cells at 0.1 to 2 uM by Western blot analysis; assay type: cell-based; conditions: dose 0.1-2 µM
[4] = (§1) Induction of primary alkylamine-tethering degradation of NSD2 Long isoform in human KMS-11 cells by Western blot analysis; assay type: cell-based
KMS-11 [5] = assay: as §1; assay type: cell-based; conditions: dose <= 5.0 µM
[6] = target: T2, Histone-lysine N-methyltransferase NSD2 (Homo sapiens) (UniProt O96028); assay: (§2) Induction of primary alkylamine-tethering degradation of NSD2 RE-IIBP isoform in human KMS-11 cells by Western blot analysis; assay type: cell-based; conditions: dose <= 5.0 µM
T2 sequence (whole entry): T1 sequence (O96028 whole entry)

[7] = target: T1, Histone-lysine N-methyltransferase NSD2; assay: as §2; assay type: cell-based
KMS-11 [8] = assay: Induction of primary alkylamine-tethering degradation of NSD2 Long isoform in human KMS-11 cells upto 5 uM by Western blot analysis; assay type: cell-based
[9] = target: T2, Histone-lysine N-methyltransferase NSD2 (Homo sapiens); assay: Induction of primary alkylamine-tethering degradation of NSD2 RE-IIBP isoform in human KMS-11 cells upto 5 uM by Western blot analysis; assay type: cell-based
KMS-11 [10] = assay: Induction of primary alkylamine-tethering degradation of NSD2 in human KMS-11 cells at 5 uM by Western blot analysis; assay type: cell-based; conditions: time 6-48 hrs
KMS-11 [11] = assay: Induction of primary alkylamine-tethering degradation of NSD2 Long isoform in human KMS-11 cells at 0.1 to 2 uM by Western blot analysis; assay type: cell-based; conditions: dose 0.1-2 µM
[12] = target: T2, Histone-lysine N-methyltransferase NSD2 (Homo sapiens); assay: Induction of primary alkylamine-tethering degradation of NSD2 RE-IIBP isoform in human KMS-11 cells at 0.1 to 2 uM by Western blot analysis; assay type: cell-based; conditions: dose 0.1-2 µM
KMS-11 [13] = assay: Induction of primary alkylamine-tethering degradation of NSD1 in human KMS-11 cells at 0.1 to 2 uM by Western blot analysis; assay type: cell-based; conditions: dose 0.1-2 µM
KMS-11 [14] = assay: Induction of primary alkylamine-tethering degradation of NSD3 in human KMS-11 cells at 0.1 to 2 uM by Western blot analysis; assay type: cell-based; conditions: dose 0.1-2 µM
KMS-11 [15] = assay: Induction of primary alkylamine-tethering degradation of NSD2 in human KMS-11 cells assessed as decrease in H3K36 methylation upto 2.5 uM by Western blot analysis; assay type: cell-based
22Rv1 = assay: Induction of primary alkylamine-tethering degradation of NSD2 in human 22Rv1 cells assessed as decrease in H3K36 methylation upto 8 uM by Western blot analysis; assay type: cell-based
KMS-11 [16] = assay: Antiproliferative activity against human KMS-11 cells assessed as inhibition of cell viability incubated for 8 to 12 days by Cell Titer Glo assay; assay type: functional, cell-based
[17] = Antiproliferative activity against HEK293T cells assessed as inhibition of cell viability incubated for 8 to 12 days by Cell Titer Glo assay; assay type: toxicity, cell-based, HEK-293T; conditions: human
KMS-11 [18] = assay: Induction of primary alkylamine-tethering degradation of NSD2 in human KMS-11 cells assessed as decrease in JAM2 mRNA level at 1.25 to 2.5 uM incubated for 2 days by qPCR analysis; assay type: cell-based; conditions: dose 1.25-2.5 µM, time 2.0 day
KMS-11 [19] = assay: Induction of primary alkylamine-tethering degradation of NSD2 in human KMS-11 cells assessed as decrease in MET mRNA level at 1.25 to 2.5 uM incubated for 2 days by qPCR analysis; assay type: cell-based; conditions: dose 1.25-2.5 µM, time 2.0 day
KMS-11 [20] = assay: Induction of primary alkylamine-tethering degradation of NSD2 in human KMS-11 cells assessed as decrease in PAK1 mRNA level at 1.25 to 2.5 uM incubated for 2 days by qPCR analysis; assay type: cell-based; conditions: dose 1.25-2.5 µM, time 2.0 day
KMS-11 [21] = assay: Induction of primary alkylamine-tethering degradation of NSD2 in human KMS-11 cells assessed as decrease in RRAS2 mRNA level at 1.25 to 2.5 uM incubated for 2 days by qPCR analysis; assay type: cell-based; conditions: dose 1.25-2.5 µM, time 2.0 day
KMS-11 [22] = assay: Induction of primary alkylamine-tethering degradation of NSD2 in human KMS-11 cells assessed as decrease in BACE2 mRNA level at 1.25 to 2.5 uM incubated for 2 days by qPCR analysis; assay type: cell-based; conditions: dose 1.25-2.5 µM, time 2.0 day
KMS-11 [23] = assay: Induction of primary alkylamine-tethering degradation of NSD2 in human KMS-11 cells assessed as decrease in CA2 mRNA level at 1.25 to 2.5 uM incubated for 2 days by qPCR analysis; assay type: cell-based; conditions: dose 1.25-2.5 µM, time 2.0 day
KMS-11 [24] = assay: Induction of primary alkylamine-tethering degradation of NSD2 in human KMS-11 cells assessed as decrease in IGF2BP2 mRNA level at 1.25 to 2.5 uM incubated for 2 days by qPCR analysis; assay type: cell-based; conditions: dose 1.25-2.5 µM, time 2.0 day
KMS-11 [25] = assay: Induction of primary alkylamine-tethering degradation of NSD2 in human KMS-11 cells assessed as decrease in CR2 mRNA level at 1.25 to 2.5 uM incubated for 2 days by qPCR analysis; assay type: cell-based; conditions: dose 1.25-2.5 µM, time 2.0 day
[26] = Solubility of compound in water measured after 4 hrs by HPLC analysis; assay type: physicochemical
[27] = Metabolic stability in human liver microsomes assessed as half life at 1 uM preincubated for 5 mins followed by NADPH addition measured for 5 to 60 mins by LC-MS/MS analysis; assay type: ADME, Microsome; conditions: time 10-65 min
[28] = Metabolic stability in human liver microsomes assessed as hepatic clearance at 1 uM preincubated for 5 mins followed by NADPH addition measured for 5 to 60 mins by LC-MS/MS analysis; assay type: ADME, Microsome; conditions: time 10-65 min
[29] = Metabolic stability in human liver microsomes assessed as hepatic extraction ratio at 1 uM preincubated for 5 mins followed by NADPH addition measured for 5 to 60 mins by LC-MS/MS analysis; assay type: ADME, Microsome; conditions: time 10-65 min, read-out: ERH
[30] = target: von Hippel-Lindau disease tumor suppressor/Histone-lysine N-methyltransferase NSD2 (Homo sapiens) (UniProt O96028+P40337); assay: PROTAC activity at VHL/NSD2 in human KMS-11 cells assessed as induction of protein degradation upto 50 uM by Western blot analysis; assay type: cell-based
von Hippel-Lindau disease tumor suppressor/Histone-lysine N-methyltransferase NSD2 (Homo sapiens), sequence (P40337 whole entry, looked up, one chain of several): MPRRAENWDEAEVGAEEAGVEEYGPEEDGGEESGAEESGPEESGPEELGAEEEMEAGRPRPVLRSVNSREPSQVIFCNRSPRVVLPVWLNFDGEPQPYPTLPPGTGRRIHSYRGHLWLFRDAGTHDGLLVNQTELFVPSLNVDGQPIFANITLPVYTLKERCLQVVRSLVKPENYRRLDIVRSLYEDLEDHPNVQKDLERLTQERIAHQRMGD

SMILES: NCCCNC(=O)COc1cc(-c2cc(Cn3cnc4c(N)ncnc43)c(N3CCC[C@](N)(CC(F)F)C3)cn2)ccc1F
Activity (KMS-11 [1]): inactive

SMILES: NCCCCCCCCCNC(=O)COc1cc(-c2cc(Cn3cnc4c(N)ncnc43)c(N3CCC[C@](N)(CC(F)F)C3)cn2)ccc1F
Activity (KMS-11 [1]): inactive

SMILES: NCCCCCCCCCCCNC(=O)COc1cc(-c2cc(Cn3cnc4c(N)ncnc43)c(N3CCCC(N)(CC(F)F)C3)cn2)ccc1F (racemic)
Activity (KMS-11 [1]): Active

Kd [2]: 8.77 µM
DC50 [4]: 1.48 µM
Activity [6]: Dose-dependent-effect
DC50 [7]: 0.8 µM
Activity [9]: 80%
Activity [12]: Active
solubility at 4 h [26]: 470 µg/mL (≈ 648 µM)
half-life at 1 µM [27]: 5.37 min
CLhep predicted at 1 µM [28]: 20.1 mL/min/kg
hepatic extraction ratio at 1 µM [29]: 0.973
SMILES: NCCCCCCCCCCCNC(=O)COc1cc(-c2cc(Cn3cnc4c(N)ncnc43)c(N3CCC[C@](N)(CC(F)F)C3)cn2)ccc1F
Activity (KMS-11 [3]): Active
Activity (KMS-11 [5]): Dose-dependent-effect
Activity (KMS-11 [8]): 80%
Activity (KMS-11 [10]): Time-dependent-effect
Activity (KMS-11 [11]): Active
Activity (KMS-11 [13]): Not active; Exhibited Moderate Degradation
Activity (KMS-11 [14]): inactive
Activity (KMS-11 [15]): Active
Activity (22Rv1): Active
IC50 (KMS-11 [16]): 0.9 µM
IC50 [17]: > 100 µM
Activity (KMS-11 [18]): Active
Activity (KMS-11 [19]): Active
Activity (KMS-11 [20]): Active
Activity (KMS-11 [21]): Active
Activity (KMS-11 [22]): Active
Activity (KMS-11 [23]): Active
Activity (KMS-11 [24]): Active
Activity (KMS-11 [25]): Active

SMILES: NCCCCCCCNC(=O)COc1cc(-c2cc(Cn3cnc4c(N)ncnc43)c(N3CCC[C@](N)(CC(F)F)C3)cn2)ccc1F
Activity (KMS-11 [1]): inactive

Kd [2]: > 100 µM
SMILES: NCCCCCCCCCCCNC(=O)COc1cc(-c2cc(Cn3cnc4c(N)ncnc43)c(N3CCC[C@@](N)(CC(F)F)C3)cn2)ccc1F
Activity (KMS-11 [3]): inactive

SMILES: CNCCCCCCCCCCCNC(=O)COc1cc(-c2cc(Cn3cnc4c(N)ncnc43)c(N3CCC[C@](N)(CC(F)F)C3)cn2)ccc1F
Activity (KMS-11 [1]): Not active; Exhibited Minimal Activity

Activity [30]: Active
SMILES: Cc1ncsc1-c1ccc([C@H](C)NC(=O)[C@@H]2C[C@@H](O)CN2C(=O)[C@@H](NC(=O)CCCCCCCCCCCNC(=O)COc2cc(-c3cc(Cn4cnc5c(N)ncnc54)c(N4CCCC(N)(CC(F)F)C4)cn3)ccc2F)C(C)(C)C)cc1 (some centres not stated)

SMILES: NCCCCCNC(=O)COc1cc(-c2cc(Cn3cnc4c(N)ncnc43)c(N3CCC[C@](N)(CC(F)F)C3)cn2)ccc1F
Activity (KMS-11 [1]): inactive

SMILES: NCCCCCCCCCCCCNC(=O)COc1cc(-c2cc(Cn3cnc4c(N)ncnc43)c(N3CCC[C@](N)(CC(F)F)C3)cn2)ccc1F
Activity (KMS-11 [1]): inactive

SMILES: NCCCCCCNC(=O)COc1cc(-c2cc(Cn3cnc4c(N)ncnc43)c(N3CCC[C@](N)(CC(F)F)C3)cn2)ccc1F
Activity (KMS-11 [1]): inactive

SMILES: Nc1ncnc2c1ncn2Cc1cc(-c2ccc(F)c(OCC(=O)NCCCCCCCCCCCNC(=O)c3ccccc3)c2)ncc1N1CCC[C@](N)(CC(F)F)C1
Activity (KMS-11 [1]): Not active; Exhibited Minimal Activity

solubility at 4 h [26]: 490 µg/mL (≈ 979 µM)
half-life at 1 µM [27]: 22.3 min
CLhep predicted at 1 µM [28]: 18.6 mL/min/kg
hepatic extraction ratio at 1 µM [29]: 0.898
SMILES: Nc1ncnc2c1ncn2Cc1cc(-c2ccc(F)c(F)c2)ncc1N1CCC[C@](N)(CC(F)F)C1
IC50 (KMS-11 [16]): 4.7 µM
IC50 [17]: 8.45 µM
